Assay results reported in patent US9096539B2, “Substituted 4,5-dihydro-2H-benzo[e]indazole-9-carboxylates for the treatment of diabetes and related disorders” (Council of Scientific & Industrial Research, priority 2012, dated 2015).

Tested on: sucrose challenged STZ induced diabetic rats
Assay: Antihyperglycaemic activity in sucrose challenged streptozotocin (STZ)-induced diabetic rats (STZ-S)
Assay type: in vivo, rat
Settings: compounds 100 mg/kg, Januvia 50 mg/kg; for % Antihyperglycaemic activity STZ-S 0-5 h AUC / % Antihyperglycaemic activity STZ-S 0-24 h AUC: oral; for Blood Glucose Profile 0 min (Pre treatment): 0 min pre treatment (fasting baseline)
Method: The test compounds and standard antidiabetic drug Januvia were prepared in 1.0% freshly prepared Gum acacia. Assessment of Test Compounds for Antihyperglycaemic Activity in Sucrose Challenged Streptozotocin STZ-Induced Diabetic Rats— Induction of Diabetes in Rats: Overnight starved male albino rats of Sprague Dawley strain were used and Diabetes was induced in the animals by single intraperitoneal injection of Streptozotocin at 60 mg/kg body weight dose prepared in 0.1M citrate buffer (pH 4.5). Fasting blood glucose level was measured by using a Glucometer (ACCU-CHEK II; […] Grouping and Treatment: […] All the diabetic animals were again divided into groups with five animals in each group. Animals of one group were regarded as the control group (orally administered 1% gum acacia) and the others were treated as the experimental groups. […] Animals of the control group were given an equal amount of 1.0% gum acacia. The standard antidiabetic drug Januvia was given to the animals at an oral dose of 50 mg/kg body weight. […] Food but not water was withheld from the cages during the course of experimentation. Percent hyperglycemic activity was determined by comparing the AUC (area under curve) of experimental groups with that of the vehicle treated control group. Quantitative glucose tolerance of each animal was calculated by the area under the curve (AUC) method using Prism Software. The area under the curve of the control group and the experimental group was compared to determine the percent antihyperglycaemic activity. Statistical comparisons were performed by one-way analysis of variance (ANOVA), followed by Dunnett's multiple range test (DMRT). […] Results were expressed as mean±SEM.

SMILES	% Antihyperglycaemic activity STZ-S 0-5 h AUC	% Antihyperglycaemic activity STZ-S 0-24 h AUC	Blood Glucose Profile 0 min (Pre treatment)	Blood Glucose Profile 30 min (Post treatment)	Blood Glucose Profile 60 min (Post treatment)	Blood Glucose Profile 90 min (Post treatment)	Blood Glucose Profile 120 min (Post treatment)	Blood Glucose Profile 180 min (Post treatment)	Blood Glucose Profile 240 min (Post treatment)	Blood Glucose Profile 300 min (Post treatment)	Blood Glucose Profile 1440 min (Post treatment)
COC(=O)c1c(SC)cc(-c2ccc(C)cc2)c2c1-c1cn(-c3ccccc3)nc1CC2 [compound 5, methyl 8-(methylthio)-2-phenyl-6-p-tolyl-4,5-dihydro-2H-benzo[e]indazole-9-carboxylate]	20.4%	23.6%	222.3 ± 9.39 mg/dL	515.6 ± 15.5 mg/dL	528.6 ± 14.4 mg/dL	506.5 ± 14.0 mg/dL	459.6 ± 11.2 mg/dL	402.1 ± 5.58 mg/dL	332.5 ± 15.6 mg/dL	284.3 ± 16.9 mg/dL	411.1 ± 13.6 mg/dL
COC(=O)c1c(SC)cc(-c2cccc3ccccc23)c2c1-c1cn(-c3ccccc3)nc1CC2 [compound 6, methyl 8-(methylthio)-6-(naphthalen-1-yl)-2-phenyl-4,5-dihydro-2H-benzo[e]indazole-9-carboxylate]	29.7%	25.7%	222.6 ± 6.55 mg/dL	442.1 ± 18.2 mg/dL	520.0 ± 10.3 mg/dL	464.0 ± 14.4 mg/dL	399.3 ± 14.0 mg/dL	334.0 ± 13.4 mg/dL	301.6 ± 18.8 mg/dL	277.0 ± 10.1 mg/dL	405.0 ± 17.6 mg/dL
